Data taken from patent US8748618B2, “Inhibitors of inv(16) leukemia” (University of Virginia Patent Foundation, priority 2009, dated 2014).
One block for each molecule: values may come before it.

Legend:
[1] = target: CBFβ-SMMHC:RD (CBFβ-SMMHC binding to the Runt domain); assay: FRET assay, inhibition of CBFβ-SMMHC binding to the Runt domain; details: for IC50 FRET (CBFβ-SMMHC:RD, 20 nM both): 20 nM both proteins
Experimental: FRET assay. […] We fused the green fluorescent protein derivative Cerulean to the N-terminus of the Runt domain and the green fluorescent protein derivative Venus to the N-terminus of CBFβ-SMMHC (as well as to CBFβ (Gorczynski, Grembecka et al. 2007)). The ratio of the emission intensities at 525 nm and 474 nm, measured after excitation at 433 nm, was used as the readout in this assay. The dynamic range for the FRET assay was determined by adding a 30-fold excess of untagged CBFβ-SMMHC (or CBFβ in the case of CBFβ—Runt domain binding) to the assay and the associated change in the FRET ratio was defined as 100% inhibition.
As shown by Shoichet and co-workers (Seidler, McGovern et al. 2003), a primary source of false positives in any screen is micelle formation. […] A substantial loss of activity in the presence of detergent is a hallmark of inhibition by micelle formation and such compounds are thus identified as false positives. In addition, we are also incubating compound with protein and checking by mass spectroscopy to ensure that positive hits are not acting by covalent addition to either of the proteins.

[2] = test system: RS4; 11 cells; assay: MTT assay, growth of RS4;11 cells; format: cell-based
Source text: (§1) We have tested several of the compounds we have synthesized for their effects on ME-1 cells, a leukemia cell line harboring the inv(16) (Yanagisawa, Horiuchi et al. 1991). […] AI-4-57 has also been tested against the Kasumi-1, Jurkat, and RS4; 11 leukemia cell lines (FIG. 4.B). […] We have also examined effects on apoptosis using flow cytometry to measure Annexin V/PI (propidium iodide) positivity. […] The selectivity for specific cell lines and the correlation of activity in the FRET assay with effects on inv(16) cells all support the hypothesis that the compounds are hitting the desired target.
(§2) Below are two exemplary dimeric compound formulas, shown here without the possible substituents indicated elsewhere herein.

[3] = test system: Jurkat cells; assay: MTT assay, growth of Jurkat cells; format: cell-based
Source text: as §1, §2

[4] = target: CBFβ (Homo sapiens (Human), UniProt Q13951); assay: NMR chemical shift perturbation with CBFβ; format: binding; details: for NMR with CBFβ + 250 uM compound, CSP G 112: residue G 112; for NMR with CBFβ + 250 uM compound, CSP K 98: residue K 98
Source text: Validation of binding of a small molecule inhibitor to its protein target is an essential step in developing potent inhibitors. This can be readily achieved using either NMR spectroscopy or X-ray crystallography. In the case of X-ray crystallography, this is achieved by co-crystallization of the protein with the ligand and determination of the structure. In the case of NMR spectroscopy, the structure of a compound-protein complex can also be determined. In addition, chemical shift perturbations of the protein NMR spectrum (typically 2D ^15N—^1H HSQC or ^13C—^1H HSQC) in the presence of compounds can both confirm binding to the target and localize the binding site on a protein (Pellecchia, Sem et al. 2002; Salvatella and Giralt 2003). The latter method is a quick and efficient method to confirm binding to the protein and to determine the binding site when appropriate labeled samples are available and the resonance assignments are known. Such data can also be used to dock the small molecule to the protein. Because the structure of CBFβ has been solved by NMR (Huang, Peng et al. 1999), resonance assignments are available and we have employed this approach as an additional screen to ensure the validity of the inhibitors we are developing and to determine the binding site (see below).

[5] = test system: Kasumi-1 cells; assay: MTT assay, growth of Kasumi-1 cells; format: cell-based
Source text: as §1, §2

[6] = test system: ME-1 cells; assay: MTT viability assay, growth of ME-1 cells; format: cell-based, human
Source text: as §1
The dimer with a 7 atom linker (AI-4-62) has been tested for effects on the growth of the ME-1 cell line (see FIG. 7), a leukemia cell line with the inv(16).

[7] = test system: inv(16) leukemia initiating cells; assay: Apoptosis of inv(16) leukemia initiating cells from a mouse model; format: cell-based; details: 3 day treatment, 2 μM, FIG. 12
Source text: (§3) Dr. Lucio Castilla's lab has identified a specific population of cells referred to as leukemia initiating cells using mouse models of inv(16) leukemia (Kuo, Y. H., et al., Cbf beta-SMMHC induces distinct abnormal myeloid progenitors able to develop acute myeloid leukemia. Cancer Cell, 2006. 9(1): p. 57-68). […] Upon acquisition of such secondary mutations, these cells can progress to overt leukemia. These cells are also typically more resistant to traditional cytotoxic chemotherapy and therefore represent a pool of cells from which relapse can occur. We have tested AI-4-83 against this pool of cells and shown that the compound is very effective at inducing apoptosis in this population.

[8] = test system: inv(16) patient sample cells; assay: MTT assay on inv(16) patient sample; format: cell-based, human; details: 48 hour treatment, 10 μM
Experimental: (§4) We have tested AI-4-83 on human bone marrow mononuclear cells (for toxicity) and on one inv(16) patient sample using an MTT assay after a 48 hour compound treatment.

[9] = test system: CDKN1a gene expression; assay: CDKN1a gene expression by RT-PCR in ME-1 cells; format: cell-based, human; details: 10, 5 and 2.5 μM, FIG. 9
Source text: The effects of the dimeric inhibitor AI-4-83 on CDKN1a gene expression were examined using RT-PCR. […] In addition, the effect of AI-4-83 is much more substantial than that for the monomeric compound, supporting the increased efficacy of the dimeric versus monomeric compounds.

[10] = test system: human bone marrow mononuclear cells (BM MNCs); assay: MTT assay on human bone marrow mononuclear cells; format: cell-based; details: 48 hour treatment, up to 10 μM
Experimental: as §4

[11] = test system: inv(16) repression (CBFβ-SMMHC) at RUNX binding site reporter; assay: Luciferase reporter assay of inv(16) repression; format: cell-based; details: FIG. 10
Source text: A luciferase reporter assay has been developed to test the effects of inhibitors on inv(16) repression. Expression of luciferase is driven by multiple copies of a RUNX binding site using endogenous RUNX and CBFβ. CBFβ-SMMHC is expressed in these cells, resulting in repression of luciferase expression.

[12] = test system: normal bone marrow mononuclear cells; assay: Effect on normal bone marrow mononuclear cells (control of the leukemia initiating cell test); format: cell-based
Source text: as §3

Chain of CBFβ (Q13951 1-141, species assumed): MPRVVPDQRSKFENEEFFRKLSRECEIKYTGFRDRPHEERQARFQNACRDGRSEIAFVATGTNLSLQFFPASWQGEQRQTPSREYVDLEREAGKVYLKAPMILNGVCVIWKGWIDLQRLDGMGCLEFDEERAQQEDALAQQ

Compound: COc1ccc2[nH]c(-c3ccccn3)nc2c1 [AI-4-57]
Growth of RS4;11 cells ([2]; MTT, FIG. 4B): No effect on growth
Growth of Jurkat cells ([3]; MTT, FIG. 4B): No effect on growth
NMR with CBFβ + 250 uM compound, CSP G 112 [4]: 0.039 ppm
NMR with CBFβ + 250 uM compound, CSP K 98 [4]: 0.026 ppm
Growth of Kasumi-1 cells ([5]; MTT, FIG. 4B): modest effect
Growth of ME-1 cells ([6]; MTT, FIG. 4A): effective inhibition of growth

Compound: COc1ccc(-c2nc3cc(OC)ccc3[nH]2)nc1 [AI-4-61]
NMR with CBFβ + 250 uM compound, CSP G 112 [4]: 0.015 ppm
NMR with CBFβ + 250 uM compound, CSP K 98 [4]: 0.013 ppm

Compound: COc1ccc2[nH]c(-c3ccc(OCCOCCOc4ccc(-c5nc6cc(OC)ccc6[nH]5)nc4)cn3)nc2c1 [AI-4-62]
Cell death of leukemia initiating cells [7]: 80%
Viability of inv(16) patient sample [8]: substantial effect
CDKN1a gene expression [9]: dose-dependent substantial increase
Effect on RS4;11 cells ([2]; 10 μM, FIG. 8): little to no effect
Effect on Jurkat cells ([3]; 10 μM, FIG. 8): little to no effect
Effect on Kasumi-1 cells ([5]; 10 μM, FIG. 8): little to no effect
Viability of bone marrow mononuclear cells [10]: no effect on the viability
Luciferase activity [11]: dose-dependent increase in luciferase activity
inhibition at 10 µM ([6]; Homo sapiens, ME-1, 10 μM): 100%
Potency of dimer relative to the corresponding monomer on ME-1 cells ([6]; MTT, FIG. 7): ~15 fold
Effect on normal bone marrow mononuclear cells [12]: no effect

Compound: CN(C)c1ccc2[nH]c(-c3ccc(OCCOCCOc4ccc(-c5nc6cc(N(C)C)ccc6[nH]5)nc4)cn3)nc2c1 [AI-10-21]
IC50 FRET (CBFβ-SMMHC:RD, 20 nM both) ([1]; Table 2 dimers): Interference with assay

Compound: Cc1cccnc1-c1nc2cc(OC(F)(F)F)ccc2[nH]1 [AI-10-63]
Δ500 [1]: Δ500 = 61%

Compound: FC(F)(F)Oc1ccc2[nH]c(-c3ncccc3C(F)(F)F)nc2c1 [AI-10-64]
Δ500 [1]: Δ500 = 50%

Compound: COc1ccc2[nH]c(-c3ncccc3C(F)(F)F)nc2c1 [AI-10-69]
Δ167 [1]: Δ167 = 18%

Results, then the molecule that gave them:

IC50 FRET (CBFβ-SMMHC:RD, 20 nM both) ([1]; Table 1 monomers): Interference with assay
Compound: FC(F)(F)c1cccc2[nH]c(-c3ccccn3)nc12 [AI-4-47]

NMR with CBFβ + 250 uM compound, CSP G 112/K 98 (in words) [4]: No CSP
Compound: CC(C)Oc1ccc2[nH]c(-c3ccccn3)nc2c1 [AI-4-70]

NMR with CBFβ + 250 uM compound, CSP G 112/K 98 (in words) [4]: No CSP
Compound: c1ccc(-c2nc3cc(N4CCOCC4)ccc3[nH]2)nc1 [AI-10-3]

NMR with CBFβ + 250 uM compound, CSP G 112 [4]: 0.037 ppm
NMR with CBFβ + 250 uM compound, CSP K 98 [4]: 0.027 ppm
Compound: CSc1ccc2[nH]c(-c3ccccn3)nc2c1 [AI-10-35]

NMR with CBFβ + 250 uM compound, CSP G 112/K 98 (in words) [4]: No CSP
Precipitation in the NMR sample ([4]; 250 uM compound with CBFβ): some precipitation
Compound: FC(F)(F)Oc1ccc2[nH]c(-c3ccccn3)nc2c1 [AI-10-47]

NMR with CBFβ + 250 uM compound, CSP G 112 [4]: 0.028 ppm
NMR with CBFβ + 250 uM compound, CSP K 98 [4]: 0.02 ppm
Compound: COc1ccc2[nH]c(-c3ncccc3OC)nc2c1 [AI-10-53]

NMR with CBFβ + 250 uM compound, CSP G 112/K 98 (in words) [4]: No CSP
Compound: O=C(O)c1ccc2[nH]c(-c3ccccn3)nc2c1 [AI-10-57]

NMR with CBFβ + 250 uM compound, CSP G 112/K 98 (in words) [4]: No CSP
Compound: Oc1ccc2[nH]c(-c3ccccn3)nc2c1 [AI-10-61]

Δ500 [1]: Δ500 = 61%
Compound: NC(=O)c1ccc2[nH]c(-c3ccccn3)nc2c1 [AI-10-70]
